Measurements taken from US12599136B2, “Substituted isophthalic acid diamides and their use as herbicides” (Bayer Aktiengesellschaft, priority 2020, dated 2026).

Legend:
Assay type in all cases: in vivo
Abutilon theophrasti [1] = assay: Pre-emergence herbicidal action against ABUTH; settings: visual score after 3 weeks vs untreated controls
Excerpt: (§1) Seeds of monocotyledonous and dicotyledonous weed plants and crop plants are laid out in sandy loam soil in wood-fiber pots and covered with soil. The compounds of the invention, formulated in the form of wettable powders (WP) or as emulsion concentrates (EC), are then applied to the surface of the covering soil in the form of an aqueous suspension or emulsion at a water application rate equivalent to 600 to 800 l/ha, with addition of 0.2% wetting agent. After the treatment, the pots are placed in a greenhouse and kept under good growth conditions for the trial plants. The damage to the test plants is scored visually after a test period of 3 weeks by comparison with untreated controls (herbicidal activity in percent (%): 100% activity=the plants have died, 0% activity=like control plants). […] The tables below illustrate, in an illustrative manner, the post-emergence herbicidal action of the compounds of the invention, the herbicidal activity being stated in percent.

Setaria viridis [2] = assay: Post-emergence herbicidal action against SETVI; settings: visual assessment about 3 weeks after treatment
Method: (§2) Seeds of monocotyledonous and dicotyledonous weed and crop plants are laid out in sandy loam soil in wood-fiber pots, covered with soil and cultivated in a greenhouse under good growth conditions. 2 to 3 weeks after sowing, the test plants are treated at the one-leaf stage. The compounds of the invention, formulated in the form of wettable powders (WP) or as emulsion concentrates (EC), are then sprayed onto the green parts of the plants in the form of an aqueous suspension or emulsion at a water application rate equivalent to 600 to 800 l/ha, with addition of 0.2% wetting agent. After the test plants have been left to stand in the greenhouse under optimal growth conditions for about 3 weeks, the action of the preparations is assessed visually in comparison to untreated controls (herbicidal action in percent (%): 100% activity=the plants have died, 0% activity=like control plants). […] The tables below illustrate, in an illustrative manner, the post-emergence herbicidal action of the compounds of the invention, the herbicidal activity being stated in percent.

Stellaria media [3] = assay: Pre-emergence herbicidal action against STEME; settings: 320 g/ha
Excerpt: as §1

Echinochloa crus-galli [4] = assay: Pre-emergence herbicidal action against ECHCG; settings: visual score after 3 weeks vs untreated controls
Excerpt: as §1

Abutilon theophrasti [5] = assay: Post-emergence herbicidal action against ABUTH; settings: 80 g/ha
Method: as §2

Setaria viridis [6] = assay: Pre-emergence herbicidal action against SETVI
Excerpt: as §1

Cyperus esculentus = assay: Pre-emergence herbicidal action against CYPES; settings: visual score after 3 weeks vs untreated controls
Excerpt: as §1

Viola tricolor [7] = assay: Pre-emergence herbicidal action against VIOTR
Excerpt: as §1

Viola tricolor [8] = assay: Post-emergence herbicidal action against VIOTR
Method: as §2

Stellaria media [9] = assay: Post-emergence herbicidal action against STEME; settings: 80 g/ha, visual assessment about 3 weeks after treatment
Method: as §2

Matricaria inodora [10] = assay: Pre-emergence herbicidal action against MATIN; settings: visual score after 3 weeks vs untreated controls
Excerpt: as §1

Veronica persica [11] = assay: Pre-emergence herbicidal action against VERPE
Excerpt: as §1

Echinochloa crus-galli [12] = assay: Post-emergence herbicidal action against ECHCG; settings: visual assessment about 3 weeks after treatment
Method: as §2

Amaranthus retroflexus [13] = assay: Pre-emergence herbicidal action against AMARE; settings: visual score after 3 weeks vs untreated controls
Excerpt: as §1

Amaranthus retroflexus [14] = assay: Post-emergence herbicidal action against AMARE; settings: 80 g/ha, visual assessment about 3 weeks after treatment
Method: as §2

Digitaria sanguinalis = assay: Pre-emergence herbicidal action against DIGSA
Excerpt: as §1

Alopecurus myosuroides [15] = assay: Pre-emergence herbicidal action against ALOMY; settings: 80 g/ha; visual score after 3 weeks vs untreated controls
Excerpt: as §1

Matricaria inodora [16] = assay: Post-emergence herbicidal action against MATIN; settings: visual assessment about 3 weeks after treatment
Method: as §2

Alopecurus myosuroides [17] = assay: Post-emergence herbicidal action against ALOMY; settings: 20 g/ha
Method: as §2

Veronica persica [18] = assay: Post-emergence herbicidal action against VERPE; settings: 20 g/ha, visual assessment about 3 weeks after treatment
Method: as §2

Avena fatua = assay: Post-emergence herbicidal action against AVEFA; settings: 20 g/ha, visual assessment about 3 weeks after treatment
Method: as §2

Pharbitis purpurea = assay: Post-emergence herbicidal action against PHBPU; settings: 20 g/ha, visual assessment about 3 weeks after treatment
Method: as §2

Compound | Pre-emergence action against ABUTH (Abutilon theophrasti [1]; 80 g/ha) | Pre-emergence action against VIOTR (Viola tricolor [7]; 80 g/ha) | Pre-emergence action against VERPE (Veronica persica [11]; 80 g/ha) | Post-emergence action against ECHCG in % (Echinochloa crus-galli [12]; 20 g/ha) | Pre-emergence action against AMARE (Amaranthus retroflexus [13]; 80 g/ha) | Pre-emergence action against ABUTH (Abutilon theophrasti [1]; 20 g/ha) | Pre-emergence action against SETVI (Setaria viridis [6]; 80 g/ha) | Pre-emergence action against MATIN (Matricaria inodora [10]; 80 g/ha) | Pre-emergence action against DIGSA (Digitaria sanguinalis; 80 g/ha) | Pre-emergence action against ALOMY (Alopecurus myosuroides [15]) | Post-emergence action against SETVI in % (Setaria viridis [2]; 20 g/ha) | Pre-emergence action against VIOTR (Viola tricolor [7]; 20 g/ha) | Pre-emergence action against MATIN (Matricaria inodora [10]; 20 g/ha) | Post-emergence action against MATIN in % (Matricaria inodora [16]; 20 g/ha) | Post-emergence action against ALOMY (Alopecurus myosuroides [17]) | Pre-emergence action against AMARE (Amaranthus retroflexus [13]; 20 g/ha) | Pre-emergence action against DIGSA (Digitaria sanguinalis; 20 g/ha) | further results
Cc1c(C(=O)Nc2nnnn2C)ccc(S(C)(=O)=O)c1C(=O)N(C)C [Example 1-395] | 90% | 80% | 100% | 100% | 100% | – | – | – | – | – | – | – | – | – | – | – | – | Pre-emergence action against ABUTH (Abutilon theophrasti [1]; Dosage column 320 g/ha (heading prints 3200 g/ha)): 100%; Post-emergence action against SETVI in % (Setaria viridis [2]; 80 g/ha): 90%; Pre-emergence action against STEME (Stellaria media [3]): 100%; Pre-emergence action against ECHCG (Echinochloa crus-galli [4]; 320 g/ha): 100%; Post-emergence action against ABUTH (Abutilon theophrasti [5]): 100%; Pre-emergence action against SETVI (Setaria viridis [6]; 320 g/ha): 100%; Pre-emergence action against CYPES (Cyperus esculentus; 80 g/ha): 100%; Pre-emergence action against CYPES (Cyperus esculentus; 320 g/ha): 100%; Pre-emergence action against VIOTR (Viola tricolor [7]; 320 g/ha): 100%; Post-emergence action against VIOTR in % (Viola tricolor [8]; 80 g/ha): 90%; Post-emergence action against STEME in % (Stellaria media [9]): 100%; Pre-emergence action against MATIN (Matricaria inodora [10]; 320 g/ha): 100%; Pre-emergence action against VERPE (Veronica persica [11]; 20 g/ha): 90%; Pre-emergence action against VERPE (Veronica persica [11]; 320 g/ha): 100%; Post-emergence action against ECHCG in % (Echinochloa crus-galli [12]; 80 g/ha): 100%; Pre-emergence action against AMARE (Amaranthus retroflexus [13]; 320 g/ha): 100%; Post-emergence action against AMARE in % (Amaranthus retroflexus [14]): 80%
CCOC(=O)[C@@H]1CCCN1C(=O)c1c(C(F)(F)F)ccc(C(=O)Nc2nnnn2CC)c1Cl [Example 2-398] | 100% | 100% | – | – | 100% | 80% | 80% | 100% | 90% | – | – | – | – | – | – | – | – | –
Cc1c(C(=O)Nc2nnnn2C)ccc(C(F)(F)F)c1C(=O)N(C)C1CC1 [Example 1-21] | 100% | 100% | 80% | 90% | 100% | – | 100% | 100% | 100% | 90% | 90% | 90% | 80% | 80% | 80% | 100% | 100% | Pre-emergence action against ECHCG (Echinochloa crus-galli [4]; 80 g/ha): 90%; Post-emergence action against VERPE in % (Veronica persica [18]): 80%
CCN(CC)C(=O)c1c(C(F)(F)F)ccc(C(=O)Nc2nnnn2CC)c1C [Example 2-31] | 100% | 100% | 80% | 90% | 100% | 100% | 90% | 100% | 100% | 80% | 90% | 100% | 90% | 90% | 80% | 100% | 90% | Post-emergence action against SETVI in % (Setaria viridis [2]; 5 g/ha): 80%; Post-emergence action against VIOTR in % (Viola tricolor [8]; 5 g/ha): 100%; Post-emergence action against VIOTR in % (Viola tricolor [8]; 20 g/ha): 100%; Post-emergence action against AVEFA in % (Avena fatua): 80%; Post-emergence action against PHBPU in % (Pharbitis purpurea): 90%; Post-emergence action against MATIN in % (Matricaria inodora [16]; 5 g/ha): 80%; Post-emergence action against ECHCG in % (Echinochloa crus-galli [12]; 5 g/ha): 80%
